Earlier results, collected in US12565477B2, “Preparation method for chlorinated compound” (JIANGSU KANION PHARMACEUTICAL CO., LTD., priority 2020, dated 2026).
“Also recorded” adds a separate entry of the source. Like-named read-outs stand apart in the source and are kept apart here.

Columns and labels:
[1] = human; for Percentage of administered dose: 0-144 h, after Lesinurad; for Metabolites found in humans after Lesinurad administration (in words): clinical data
[2] = Hepatocyte, Rat, in vitro
[3] = Hepatocyte, Dog, in vitro
[4] = Liver microsome, Monkey, in vitro
[5] = Liver microsome, Rat, in vitro
[6] = Liver microsome, Dog, in vitro
[7] = Liver microsome, Human, in vitro
[8] = Hepatocyte, Monkey, in vitro
[9] = Hepatocyte, Human, in vitro
URAT1 = biological target: T1, URAT1 (Homo sapiens, UniProt Q96S37)
T1 construct: URAT1 is an important kidney anion transporter located on the brush border membrane of epithelial cells of renal tubules; host or cells: kidney of treated patients (endogenous)
T1 sequence (Q96S37 1-553): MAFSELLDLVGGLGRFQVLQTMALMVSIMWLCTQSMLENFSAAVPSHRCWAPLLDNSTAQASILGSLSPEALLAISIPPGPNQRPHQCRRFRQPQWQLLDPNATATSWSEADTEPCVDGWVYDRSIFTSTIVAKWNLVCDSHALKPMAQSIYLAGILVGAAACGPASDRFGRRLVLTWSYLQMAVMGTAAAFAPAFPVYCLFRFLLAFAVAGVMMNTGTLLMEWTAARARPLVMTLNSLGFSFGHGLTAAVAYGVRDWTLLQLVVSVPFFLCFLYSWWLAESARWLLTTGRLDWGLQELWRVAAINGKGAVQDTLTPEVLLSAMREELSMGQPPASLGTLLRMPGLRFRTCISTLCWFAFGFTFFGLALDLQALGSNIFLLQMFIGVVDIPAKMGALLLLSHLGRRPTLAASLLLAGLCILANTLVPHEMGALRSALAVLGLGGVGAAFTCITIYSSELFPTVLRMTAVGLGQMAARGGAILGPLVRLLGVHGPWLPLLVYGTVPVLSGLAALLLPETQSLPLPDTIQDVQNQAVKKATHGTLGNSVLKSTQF

| Percentage of administered dose ([1]; Feces) | Percentage of administered dose ([1]; Urine) | Share of M3, M4 and Lesinurad detected (Total 100) [2] | Share of M3, M4 and Lesinurad detected (Total 100) [3] | Share of M3, M4 and Lesinurad detected (Total 100) [4] | Share of M3, M4 and Lesinurad detected (Total 100) [5] | Share of M3, M4 and Lesinurad detected (Total 100) [6] | Share of M3, M4 and Lesinurad detected (Total 100) [7] | Share of M3, M4 and Lesinurad detected (Total 100) [8] | Share of M3, M4 and Lesinurad detected (Total 100) [9] | Additional effect of combined medication versus xanthine oxidase inhibitor alone (URAT1; Lesinurad 200 mg/day with XOI) | Additional effect of combined medication (URAT1; Lesinurad 400 mg/day (high dose) with XOI) | SMILES | Metabolites found in humans after Lesinurad administration (in words) [1] | Toxic side effects (kidney-related adverse events, especially kidney stone) (URAT1; Lesinurad 400 mg/day) |
| --- | --- | --- | --- | --- | --- | --- | --- | --- | --- | --- | --- | --- | --- | --- |
| 4.8% | 0.3% | – | – | – | – | – | – | – | – | – | – | O=C(O)CSc1nncn1-c1ccc(C2CC2)c2ccccc12 [Compound M2] | – | – |
| 3.6% | – | – | – | – | – | – | – | – | – | – | – | O=C(O)CSc1nncn1-c1ccc(C2(O)CC2)c2ccccc12 [Compound M5] | – | – |

Second part, the compound before the results:

| SMILES | Percentage of administered dose ([1]; Feces) | Percentage of administered dose ([1]; Urine) | Share of M3, M4 and Lesinurad detected (Total 100) [2] | Share of M3, M4 and Lesinurad detected (Total 100) [3] | Share of M3, M4 and Lesinurad detected (Total 100) [4] | Share of M3, M4 and Lesinurad detected (Total 100) [5] | Share of M3, M4 and Lesinurad detected (Total 100) [6] | Share of M3, M4 and Lesinurad detected (Total 100) [7] | Share of M3, M4 and Lesinurad detected (Total 100) [8] | Share of M3, M4 and Lesinurad detected (Total 100) [9] | Additional effect of combined medication versus xanthine oxidase inhibitor alone (URAT1; Lesinurad 200 mg/day with XOI) | Additional effect of combined medication (URAT1; Lesinurad 400 mg/day (high dose) with XOI) | Metabolites found in humans after Lesinurad administration (in words) [1] | Toxic side effects (kidney-related adverse events, especially kidney stone) (URAT1; Lesinurad 400 mg/day) |
| --- | --- | --- | --- | --- | --- | --- | --- | --- | --- | --- | --- | --- | --- | --- |
| O=C(O)CSc1nnc(Br)n1-c1ccc(C2CC2)c2c1C=CC(O)C2O (stereo not drawn) [Compound M4] | 5.0% | 15.7% | not detected | not detected | – | – | – | – | – | – | – | – | specifically detected in human metabolites; also recorded: most predominant metabolites | – |
| O=C(O)CSc1nnc(Br)n1-c1ccc(C2(O)CC2)c2ccccc12 [Compound M3] | 0.3% | 12.0% | not detected | not detected | 7.9% | – | – | – | – | – | – | – | most predominant metabolites | – |
| O=C(O)CSc1nnc(Br)n1-c1ccc(C2CC2)c2ccccc12 [Lesinurad] | 1.5% | 31.3% | 100% | 100% | 92.1% | 100% | 100% | 100% | 98.1% | 92.1% | not very significant | higher additional effect | – | significantly increased toxic side effects |
